{"source": "patent US12491209B2", "about": "“Dissolved C60 and method of producing dissolved C60” (Innovation for Success, LLC, priority 2019, dated 2025)", "key": {"[1]": {"details": "C60 molecules diffuse out of the body; cited from earlier work"}, "[2]": {"details": "cited from earlier work"}, "IgE": {"system": "IgE", "details": "animal models, applied topically; cited from earlier work"}, "[3]": {"test": "Solubility of C60 in limonene composition / d-limonene by heating method 200", "format": "physicochemical", "excerpt": "As shown in the flowchart of FIG. 2 and with additional reference to FIG. 3, a method 200 for dissolving C60 304 in a liquid medium that is non-toxic and safe for human consumption includes combining C60 304 with a limonene composition 308 to form a C60 mixture 312. (Block 204). The limonene composition 308 is discussed in connection with the method 200, but the limonene composition 308 may be substituted with orange terpenes or other edible and non-toxic terpenes (or terpene containing liquids). The limonene composition 308 is used over orange terpenes, because the limonene composition 308 has a more pleasant and less bitter taste. In one embodiment, the limonene composition 308 is at least 95% d-limonene by volume, with the remaining 5% including any other liquid, such as limonene, flavoring, fragrances, and the like. In another embodiment, the limonene composition 308 is at least 75% d-limonene with the remaining 25% including any other liquid, such as limonene, flavoring, fragrances, and the like.\nAt block 204 of the method 200, the C60 304 is pulverized into a powdered form and combined with the liquid limonene composition 308 in a glass vessel (not shown) or any other heat-safe and non-reactive container. Additionally or alternatively, the C60 304 is not pulverized and is added to the limonene composition 308 in granular, chunky, or crystalline state. […]"}, "[4]": {"details": "per single C60 molecule; cited from earlier work"}}, "note": "Read-outs that look alike come from different tables or passages of the source.", "data": [{"smiles": "c12c3c4c5c1c1c6c7c2c2c8c3c3c9c4c4c%10c5c5c1c1c6c6c%11c7c2c2c7c8c3c3c8c9c4c4c9c%10c5c5c1c1c6c6c%11c2c2c7c3c3c8c4c4c9c5c1c1c6c2c3c41", "note": "[C60, Buckminsterfullerene]", "values": [{"measurement": "residence time in the body", "setting": "[1]", "result": "about five"}, {"measurement": "Solubility Limit", "setting": "[2]; solvent 1,2-dichlorobenzene", "result": 27000, "unit": "µg/mL"}, {"measurement": "Solubility Limit", "setting": "[2]; solvent 1-chloronaphthalene", "result": 41000, "unit": "µg/mL"}, {"measurement": "Solubility Limit", "setting": "[2]; solvent 1-methylnaphthalene", "result": 33000, "unit": "µg/mL"}, {"measurement": "Solubility Limit", "setting": "[2]; solvent acetone", "result": 1, "unit": "µg/mL"}, {"measurement": "Solubility Limit", "setting": "[2]; solvent anisole", "result": 5600, "unit": "µg/mL"}, {"measurement": "Solubility Limit", "setting": "[2]; solvent benzene", "result": 1700, "unit": "µg/mL"}, {"measurement": "Solubility Limit", "setting": "[2]; solvent benzonitrile", "result": 410, "unit": "µg/mL"}, {"measurement": "Solubility Limit", "setting": "[2]; solvent carbon disulfide", "result": 7900, "unit": "µg/mL"}, {"measurement": "Solubility Limit", "setting": "[2]; solvent carbon tetrachloride", "result": 447, "unit": "µg/mL"}, {"measurement": "Solubility Limit", "setting": "[2]; solvent chloroform", "result": 160, "unit": "µg/mL"}, {"measurement": "Solubility Limit", "setting": "[2]; solvent cyclohexane", "result": 36, "unit": "µg/mL"}, {"measurement": "Solubility Limit", "setting": "[2]; solvent decalins", "result": 4600, "unit": "µg/mL"}, {"measurement": "Solubility Limit", "setting": "[2]; solvent dichloromethane", "result": 260, "unit": "µg/mL"}, {"measurement": "Solubility Limit", "setting": "[2]; solvent ethanol", "result": 1.4, "unit": "µg/mL"}, {"measurement": "Solubility Limit in mg/ml", "setting": "[2]; solvent isopropanol", "result": "ND (“ND” indicates that C60 in insoluble in the identified solvent)"}, {"measurement": "Solubility Limit in mg/ml", "setting": "[2]; solvent methanol", "result": "ND (“ND” indicates that C60 in insoluble in the identified solvent)"}, {"measurement": "Solubility Limit", "setting": "[2]; solvent n-decane", "result": 71, "unit": "µg/mL"}, {"measurement": "Solubility Limit", "setting": "[2]; solvent n-hexane", "result": 43, "unit": "µg/mL"}, {"measurement": "Solubility Limit", "setting": "[2]; solvent n-pentane", "result": 5, "unit": "µg/mL"}, {"measurement": "Solubility Limit", "setting": "[2]; solvent octanol", "result": 42.9, "unit": "µg/mL"}, {"measurement": "Solubility Limit", "setting": "[2]; solvent tetrachloromethane", "result": 320, "unit": "µg/mL"}, {"measurement": "Solubility Limit in mg/ml", "setting": "[2]; solvent tetrahydrofuran", "result": "ND (“ND” indicates that C60 in insoluble in the identified solvent)"}, {"measurement": "Solubility Limit", "setting": "[2]; solvent tetralin", "result": 16000, "unit": "µg/mL"}, {"measurement": "Solubility Limit", "setting": "[2]; solvent toluene", "result": 2800, "unit": "µg/mL"}, {"measurement": "Solubility Limit", "setting": "[2]; solvent water", "result": "1.3e-08", "unit": "µg/mL"}, {"measurement": "Solubility Limit", "setting": "[2]; solvent xylene", "result": 5200, "unit": "µg/mL"}, {"measurement": "IgE reduction", "setting": "IgE", "result": "reduce IgE significantly"}, {"measurement": "dissolution of C60 into the limonene composition without heating", "setting": "[3]; room temperature 70° F. (21° C.)", "result": "does not dissolve to any significant extent"}, {"measurement": "Solubility Limit", "setting": "[3]; solvent d-limonene, results achieved by method 200", "result": 16670, "unit": "µg/mL"}, {"measurement": "free electrons / methyl radicals absorbed per C60 molecule", "setting": "[4]", "result": "up to thirty-four"}]}]}
